In test [1] the test system is full length SMN2 minigene mRNA (HEK293H cells stably transfected with SMN2-A minigene). Briefly: SMN2 minigene mRNA splicing RT-qPCR assay in cultured cells. It counts as cell-based. Particulars: Homo sapiens, HEK293-H, 24 hours, 7-point concentration curve, 1.5-fold increase relative to vehicle, read-out: EC1.5x minigene (EC1.5x concentration for production of full length SMN2 minigene mRNA). An excerpt:
The term “EC1.5x concentration for production of full length SMN2 minigene mRNA” (or “EC1.5x minigene”) is defined as that concentration of test compound that 1 s effective m increasing the amount of full length SMN2 minigene mRNA to a level 1.5-fold greater relative to that in vehicle-treated cells.
The reverse transcription-quantitative PCR-based (RT-qPCR) assay is used to quantify the level of the full length SMN2 minigene (referred to herein by the term “FL SMN2mini”) mRNA containing SMN2 exon 7 in a HEK293H cell line stably transfected with said minigene and treated with a test compound. Materials used and respective sources are listed below in Table 1.
The SMN2-A minigene construct was prepared as described in International Patent Application WO2009/151546A1 page 145 paragraph [00400] to page 147 paragraph [00412](incl. FIG. 1 and FIG. 3 therein).
HEK293H cells stably transfected with the SMN2-A minigene construct (10,000 cells/well) are seeded in 200 μL of cell culture medium (DMEM plus 10% FBS, with 200 μg/mL hygromycin) in 96-well flat-bottom plates and the plate is immediately swirled to ensure proper dispersal of cells and the formation of an even monolayer of cells. Cells are allowed to attach for 6 hours. Test compounds are serially diluted 3.16-fold in 100% DMSO to generate a 7-point concentration curve. A solution of test compound (1 μL, 200× in DMSO) is added to each cell-containing well and the plate is incubated for 24 hours in a cell culture incubator (37° C., 5% CO2, 100% relative humidity). 2 replicates are prepared for each test compound concentration. The cells are then lysed in the Cells-To-Ct lysis buffer and the lysate is stored at −80° C.
Full length SMN2-A minigene and GAPDH mRNA are quantified using the primers and probes referenced in Table 2. Primer SMN Forward A (SEQ ID NO.1) hybridizes to a nucleotide sequence in exon 7 (nucleotide 22 to nucleotide 40), primer SMN Reverse A (SEQ ID NO.2) hybridizes to a nucleotide sequence in the coding sequence of Firefly luciferase, SMN Probe A (SEQ ID NO.3) hybridizes to a nucleotide sequence in exon 7 (nucleotide 50 to nucleotide 54) and exon 8 (nucleotide 1 to nucleotide 21). The combination of these three oligonucleotides detects only SMN1 or SMN2 minigenes (RT-qPCR) and will not detect endogenous SMN1 or SMN2 genes.
The SMN forward and reverse primers are used at final concentrations of 0.4 μM. The SMN probe is used at a final concentration of 0.15 μM. The GAPDH primers are used at final concentrations of 0.2 μM and the probe at 0.15 μM.
The SMN2-minigene GAPDH mix (15 μL total volume) is prepared by combining 7.5 μL of 2×RT-PCR buffer, 0.4 μL of 25×RT-PCR enzyme mix, 0.75 μL of 20×GAPDH primer-probe mix, 4.0075 μL of water, 2 μL of 10-fold diluted cell lysate, 0.06 μL of 100 µM SMN forward primer, 0.06 μL of 100 μM SMN reverse primer, and 0.225 μL of 100 μM SMN probe.
PCR is carried out at the following temperatures for the indicated time: Step 1: 48° C. (15 min); Step 2: 95° C. (10 min); Step 3: 95° C. (15 sec); Step 4: 60° C. (1 min); then repeat Steps 3 and 4 for a total of 40 cycles.
Each reaction mixture contains both SMN2-A minigene and GAPDH primers/probe sets (multiplex design), allowing simultaneous measurement of the levels of two transcripts.
The increase in the abundance of the FL SMN2mini mRNA relative to that in cells treated with vehicle control is determined from real-time PCR data using a modified ΔΔCt method (as described in Livak and Schmittgen, Methods, 2001, 25:402-8). The amplification efficiency E is calculated from the slope of the amplification curve for FL SMN2mini and GAPDH individually. The abundance of FL SMN2mini and GAPDH mRNA are then calculated as (1+E)^−Ct, where Ct is the threshold value for each amplicon. The abundance of FL SMN2mini mRNA is normalized to GAPDH mRNA abundance. […]
A general note: Real-time PCR tracks product formation cycle by cycle.

For test [2], the system named is SMN protein in SMA patient fibroblast cells (GM03813). Description: SMN protein assay in cultured cells (SMN HTRF). It is filed as cell-based. Particulars: Homo sapiens, SMA Type 1 patient fibroblasts, 48 hours; for EC (1.5-fold): 7-point concentration curve, 1.5 times SMN protein vs vehicle, read-out: EC1.5x SMN protein (EC1.5x concentration for SMN protein expression); for maximal fold induction: fold increase relative to vehicle control, read-out: max. fold increase of SMN protein. An excerpt: The term “EC1.5x concentration for SMN protein expression” (or “EC1.5x SMN protein”) is defined as that concentration of test compound that is effective in producing 1.5 times the amount of SMN protein in an SMA patient fibroblast cell compared to the amount produced from the vehicle control.
The SMN HTRF (homogeneous time resolved fluorescence) assay is used to quantify the level of SMN protein in SMA patient fibroblast cells treated with test compounds. Materials used and respective sources are listed below in Table 4.
Cells are thawed and cultured in DMEM-10% FBS for 72 hours. Cells are trypsinized, counted and re-suspended to a concentration of 25,000 cells/mL in DMEM-10% FBS. The cell suspensions are plated at 5,000 cells per well in a 96 well microtiter plate and incubated for 3 to […]. Test compounds are serially diluted 3.16-fold in 100% DMSO to generate a 7-point concentration curve. 1 μL of test compound solution is transferred to cell-containing wells and cells are incubated for 48 hours in a cell culture incubator (37° C., 5% CO2, […]). Triplicate samples are set up for each test compound concentration. After 48 hours, the supernatant is removed from the wells and 25 μL of the RIPA lysis buffer, containing protease inhibitors, is added to the wells and incubated with shaking at room temperature for 1 hour. 25 μL of the diluent is added and then 35 μL of the resulting lysate is transferred to a 384-well plate, where each well contains 5 μL of the antibody solution (1:100 dilution of anti-SMN d2 and anti-SMN kryptate in SMN reconstitution buffer). The plate is centrifuged for 1 minute to bring the solution to the bottom of the wells, then incubated overnight at room temperature. Fluorescence for each well of the plate at 665 nm and 620 nm is measured on an EnVision multilabel plate reader (Perkin-Elmer).
The normalized fluorescence signal is calculated for each sample, Blank and vehicle control well by dividing the signal at 665 nm by the signal at 620 nm. Normalizing the signal accounts for possible fluorescence quenching due to the matrix effect of the lysate. The ΔF value (a measurement of SMN protein abundance as a percent value) for each sample well is calculated by subtracting the normalized average fluorescence for the Blank control wells from the normalized fluorescence for each sample well, then dividing this difference by the normalized average fluorescence for the Blank control wells and multiplying the resulting value by 100. The ΔF value for each sample well represents the SMN protein abundance from test compound-treated samples. The ΔF value for each sample well is divided by the ΔF value for the vehicle control wells to calculate the fold increase in SMN protein abundance relative to the vehicle control. Table 5 provides EC1.5x concentrations for SMN protein expression that was obtained from the 7-point concentration data generated according to the above procedure for particular compounds of the present invention.
Table 6 provides the maximum fold increase of SMN protein that was obtained from the 7-point concentration data generated according to the above procedure for particular compounds of the present invention
A general note: TR-FRET usually uses a lanthanide donor and a delayed reading to cut background.

On to `Cc1cn2nc(-c3cc(=O)n4cc(N5CCCNCC5)ccc4n3)ccc2n1` [Example 13, 7-(1,4-diazepan-1-yl)-2-(2-methylimidazo[1,2-b]pyridazin-6-yl)pyrido[1,2-a]pyrimidin-4-one], for which the EC (1.5-fold) in test [1] came to 0.005 µM. For the same compound, in test [2], the EC (1.5-fold) turned out to be 0.003 µM and the maximal fold induction came to 1.91.
Turning to `Cc1cn2nc(-c3cc(=O)n4cc(N5C[C@@H](C)N[C@@H](C)C5)ccc4n3)ccc2n1` [Example 14, 7-[(3R,5S)-3,5-dimethylpiperazin-1-yl]-2-(2-methylimidazo[1,2-b]pyridazin-6-yl)pyrido[1,2-a]pyrimidin-4-one], the results for the EC (1.5-fold) in test [1] and in test [2] were 0.0041 µM and 0.0176 µM, respectively. In addition, the maximal fold induction in test [2] is 1.86.
On to `Cc1cn2nc(-c3cc(=O)n4cc(N5CCN6CCC[C@H]6C5)ccc4n3)ccc2n1` [Example 15, 7-[(8aS)-3,4,6,7,8,8a-hexahydro-1H-pyrrolo[1,2-a]pyrazin-2-yl]-2-(2-methylimidazo[1,2-b]pyridazin-6-yl)pyrido[1,2-a]pyrimidin-4-one], for which the EC (1.5-fold) in test [1] was 0.004 µM; in test [2], 0.0212 µM. Also, the maximal fold induction in test [2] amounted to 1.94.
With `Cc1cn2nc(-c3cc(=O)n4cc(N5CCN6CCC[C@@]6(C)C5)ccc4n3)ccc2n1` [Example 16, 7-[(8aS)-8a-methyl-1,3,4,6,7,8-hexahydropyrrolo[1,2-a]pyrazin-2-yl]-2-(2-methylimidazo[1,2-b]pyridazin-6-yl)pyrido[1,2-a]pyrimidin-4-one], the EC (1.5-fold) in test [1] turned out to be 0.0011 µM. Moreover, in test [2], the EC (1.5-fold) is 0.003 µM and the maximal fold induction is 1.83.
`Cc1cn2nc(-c3cc(=O)n4cc(N5CCN6CCC[C@]6(C)C5)ccc4n3)ccc2n1` [Example 17, 7-[(8aR)-8a-methyl-1,3,4,6,7,8-hexahydropyrrolo[1,2-a]pyrazin-2-yl]-2-(2-methylimidazo[1,2-b]pyridazin-6-yl)pyrido[1,2-a]pyrimidin-4-one]: the EC (1.5-fold) in test [1] turned out to be 0.0064 µM. In test [2], the EC (1.5-fold) turned out to be 0.0202 µM and the maximal fold induction was 1.98.
`Cc1cn2nc(-c3cc(=O)n4cc(N5CC[C@@H](N6CCCC6)C5)ccc4n3)cc(C)c2n1` [Example 18, 2-(2,8-dimethylimidazo[1,2-b]pyridazin-6-yl)-7-[(3R)-3-pyrrolidin-1-ylpyrrolidin-1-yl]pyrido[1,2-a]pyrimidin-4-one]: the EC (1.5-fold) in test [1] was determined as 0.0036 µM. In test [2], the EC (1.5-fold) came to 0.025 µM and the maximal fold induction came to 1.75.
Taken in the same sequence, the figures for `Cc1cn2nc(-c3cc(=O)n4cc(N5CCNC6(CC6)C5)ccc4n3)cc(C)c2n1` [Example 20, 7-(4,7-diazaspiro[2.5]octan-7-yl)-2-(2,8-dimethylimidazo[1,2-b]pyridazin-6-yl)pyrido[1,2-a]pyrimidin-4-one] were 0.0043 µM, 0.037 µM and 1.72.
For `Cc1cn2nc(-c3cc(=O)n4cc(N5CC[C@@H](N6CCCC6)C5)ccc4n3)ccc2n1` [Example 21, 2-(2-methylimidazo[1,2-b]pyridazin-6-yl)-7-[(3R)-3-pyrrolidin-1-ylpyrrolidin-1-yl]pyrido[1,2-a]pyrimidin-4-one], the figures for the EC (1.5-fold) in test [1] and in test [2] were 0.0096 µM and 0.0687 µM, respectively. In test [2], the maximal fold induction was determined as 1.54.
Taken in the same sequence, the figures for `Cc1cn2nc(-c3cc(=O)n4cc(N5CCNC(C)(C)C5)ccc4n3)cc(C)c2n1` [Example 22, 2-(2,8-dimethylimidazo[1,2-b]pyridazin-6-yl)-7-(3,3-dimethylpiperazin-1-yl)pyrido[1,2-a]pyrimidin-4-one] were 0.0009 µM, 0.0138 µM and 1.69.
With `Cc1cn2nc(-c3cc(=O)n4cc(N5CCNC(C)(C)C5)ccc4n3)ccc2n1` [Example 23, 7-(3,3-dimethylpiperazin-1-yl)-2-(2-methylimidazo[1,2-b]pyridazin-6-yl)pyrido[1,2-a]pyrimidin-4-one], the EC (1.5-fold) in test [1] worked out at 0.0034 µM. Besides, in test [2], the EC (1.5-fold) was 0.0239 µM and the maximal fold induction is 1.63.
Regarding `Cc1cn2nc(-c3cc(=O)n4cc(N5CCN[C@@H](C)C5)cc(C)c4n3)cc(C)c2n1` [Example 24, 2-(2,8-dimethylimidazo[1,2-b]pyridazin-6-yl)-9-methyl-7-[(3S)-3-methylpiperazin-1-yl]pyrido[1,2-a]pyrimidin-4-one], in test [1], the EC (1.5-fold) was 0.0004 µM. In test [2], the EC (1.5-fold) was determined as 0.0047 µM and the maximal fold induction came out at 1.77.
Taken in the same sequence, the figures for `Cc1cn2nc(-c3cc(=O)n4cc(N5CCN[C@H](C)C5)cc(C)c4n3)cc(C)c2n1` [Example 25, 2-(2,8-dimethylimidazo[1,2-b]pyridazin-6-yl)-9-methyl-7-[(3R)-3-methylpiperazin-1-yl]pyrido[1,2-a]pyrimidin-4-one] were 0.0005 µM, 0.0119 µM and 1.79.

Values taken from US11827646B2, “Compounds for treating spinal muscular atrophy” (Hoffmann-La Roche Inc., priority 2014, dated 2023).
